In patent US6624179B1, “Geometrical isomers of acrylonitrile compounds, mixture thereof, and process for producing these” (Ishihara Sangyo Kaisha Ltd., priority 1999, dated 2003):
Entries after “also recorded” stand apart in the source; their conditions may differ.

Legend:
[1] = test system: citrus red mite (Panonychus citri); experiment: Test Example 1: spray application to satsuma mandarin infested with citrus red mite, greenhouse; type: in vivo; details: for Number of adult citrus red mite 7th day / Number of adult citrus red mite 12th day / Number of adult citrus red mite 18th day / Number of adult citrus red mite 26th day: 150 ppm active ingredient, sprayed; for Number of adult citrus red mite 7th day: 10% water-based suspension concentrate, 7th day after application; for Number of adult citrus red mite 12th day: 12th day after application; for Number of adult citrus red mite 18th day: 18th day after application; for Number of adult citrus red mite 26th day: 26th day after application; for pesticidal effects (in words): 150 ppm, citrus red mite on satsuma mandarin, conclusion from Table 1; for Number of adult citrus red mite Before application: baseline count before application, all leaves of satsuma mandarin tree
From the text: A 10% water-based suspension concentrate of each of compound D and compound E was dispersed in water to obtain a chemical solution wherein the active ingredient is 150 ppm. Such a chemical solution was applied to satsuma mandarin (Citrus unshiu Marc.) infested with citrus red mite (Panonychus citri) (planted in a plastic pot having a diameter of 24 cm and a height of 29 cm) by means of a sprayer and then left to stand in a greenhouse. Before the application and on the 7th day, 12th day, 18th day and 26th day after the application, the number of adult citrus red mite on all leaves of the satsuma mandarin tree was counted.

[2] = test system: two-spotted spider mite (Tetranychus urticae); experiment: Test Example 2: spray application to eggplant infested with two-spotted spider mite, greenhouse; type: in vivo; details: for Number of adult two-spotted spite mite 5th day / Number of adult two-spotted spite mite 9th day / Number of adult two-spotted spite mite 12th day / Number of adult two-spotted spite mite 15th day: 150 ppm active ingredient, sprayed; for Number of adult two-spotted spite mite 5th day: 10% water-based suspension concentrate in water with 0.02% spreader, 5th day after application; for Number of adult two-spotted spite mite 9th day: 9th day after application; for Number of adult two-spotted spite mite 12th day: 12th day after application; for Number of adult two-spotted spite mite 15th day: 15th day after application; for pesticidal effects (in words): 150 ppm, two-spotted spider mite on eggplant, conclusion from Table 2; for Number of adult two-spotted spite mite Before application: baseline count before application, on the eggplant
From the text: A 10% water-based suspension concentrate of each of compounds H and G was dispersed in water containing 0.02% of a spreader (Shinrino, manufactured by NIHON NOHYAKU CO., LTD.) to obtain a chemical solution wherein the active ingredient was 150 ppm. Such a chemical solution was applied to an eggplant (Solanum melongena) infested with two-spotted spider mite (Tetranychus urticae) (planted in a plastic pot having a diameter of 17 cm and a height of 19 cm) by means of a sprayer, and then left to stand in a greenhouse. Before the application and on the 5th day, 9th day, 12th day and 15th day after the application, the number of adult two-spotted spider mite on the eggplant was counted.

Compound	Number of adult citrus red mite 7th day [1]	Number of adult citrus red mite 12th day [1]	Number of adult citrus red mite 18th day [1]	Number of adult citrus red mite 26th day [1]	pesticidal effects (in words) [1]	Number of adult citrus red mite Before application [1]	Number of adult two-spotted spite mite 5th day [2]	Number of adult two-spotted spite mite 9th day [2]	Number of adult two-spotted spite mite 12th day [2]	Number of adult two-spotted spite mite 15th day [2]	pesticidal effects (in words) [2]	Number of adult two-spotted spite mite Before application [2]
CSC(=O)OC(=C(C#N)c1ccc(C(C)(C)C)cc1)c1ccccc1C(F)(F)F [Compound D, α-(4-tert-Butylphenyl)-β-[(methylthio)carbonyloxy]-β-(2-trifluoromethylphenyl)acrylonitrile]	0	4	2	65	excellent pesticidal effects	111	–	–	–	–	–	–
CSC(=O)OC(=C(C#N)c1ccc(C(C)(C)C)cc1)c1ccccc1C(F)(F)F [Compound E, α-(4-tert-Butylphenyl)-β-[(methylthio)carbonyloxy]-β-(2-trifluoromethylphenyl)acrylonitrile]	0	2	1	4	excellent pesticidal effects; also recorded: superior pesticidal effects	106	–	–	–	–	–	–
CSC(=S)OC(=C(C#N)c1ccc(Cl)cc1)c1ccccc1C(F)(F)F [Compound G, α-(4-Chlorophenyl)-β-(S-methyldithiocarbonyloxy)-β-(2-trifluoromethylphenyl)acrylonitrile]	–	–	–	–	–	–	1	0	2	4	excellent pesticidal effects; also recorded: superior pesticidal effects	106
CSC(=S)OC(=C(C#N)c1ccc(Cl)cc1)c1ccccc1C(F)(F)F [H, α-(4-chlorophenyl)-β-(S-methyldithiocarbonyloxy)-β-(2-trifluoromethylphenyl)acrylonitrile]	–	–	–	–	–	–	0	1	18	42	excellent pesticidal effects	111
